Entries after “also recorded” stand apart in the source; their conditions may differ. Where no end group is shown, it is not given here.
Tests used:
PDHR 41189 = biological target: T1, PDHR 41189 (Carcinus maenas, UniProt A0A7G7MT96); assay: heterologous aequorin-based receptor luminescence assay, PDHR 41189; assay type: cell-based; settings: Ca2+ luminescence; for activation of PDHR 41189 (in words): CHO-K1-Aeq-Gα16 cells
T1 sequence (A0A7G7MT96 1-455): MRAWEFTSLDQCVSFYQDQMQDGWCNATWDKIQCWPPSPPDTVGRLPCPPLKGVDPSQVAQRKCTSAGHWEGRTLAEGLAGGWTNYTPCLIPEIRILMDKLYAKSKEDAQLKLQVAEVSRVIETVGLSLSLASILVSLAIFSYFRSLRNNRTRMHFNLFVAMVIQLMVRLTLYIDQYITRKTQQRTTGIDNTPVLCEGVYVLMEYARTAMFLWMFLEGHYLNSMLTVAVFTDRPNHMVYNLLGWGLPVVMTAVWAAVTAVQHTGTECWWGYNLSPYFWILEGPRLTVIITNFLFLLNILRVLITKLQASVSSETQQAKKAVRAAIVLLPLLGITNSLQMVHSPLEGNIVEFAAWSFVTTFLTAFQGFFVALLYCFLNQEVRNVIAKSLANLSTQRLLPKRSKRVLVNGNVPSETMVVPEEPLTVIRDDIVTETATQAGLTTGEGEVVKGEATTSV
Experimental: (§1) PCR of these transcripts was performed as described previously ([Alexander J. et al., 2018]; [Alexander J. L. et al., 2018]). Primer sequences for directional cloning and expression are shown in Supplementary Table 1. Correctly sized PCR products were directionally cloned into pcDNA 3.1 D/V5-His-TOPO plasmids (Invitrogen) and the recombinant vector transformed into TOP 10 competent cells (Invitrogen). Positive clones were cultured overnight in selective LB medium with 100 μg ml^–1 ampicillin, plasmids extracted (FastPlasmid Mini Kit, 5Prime, Hamburg, Germany), resequenced to confirm insert orientation and verification (MWG Eurofins, Ebersberg, Germany), and analyzed using Geneious V 9.1.8.
(§2) A heterologous cell–based assay using Chinese hamster ovary cells (CHO-K1) expressing apoaequorin (Perkin Elmer, Boston, MA, […]) and either the Gα16 or Gq subunit (control cells) was used to report intracellular Ca^2+ fluxes after exposure to ligand, as previously detailed ([Alexander J. et al., 2018]; [Alexander J. L. et al., 2018]).
(§3) Peptides used in the luminescence assay were synthetic C. maenas PDH-1-3 and e-PDH, DH-31 (Genecust Dudelange, Luxembourg). Peptides were reconstituted in 30% acetonitrile, aliquoted and dried by vacuum centrifugation and subsequently re-dissolved in BSA medium (DMEM/F, 50 mM HEPES, 0.1% BSA) immediately prior to assay, and dispensed into quadruplicate wells of white 96 well plates (OptiPlate, Perkin Elmer). Cell suspensions (5 × 10^6 cells/ml) were stirred gently and 50 μl amounts were injected into each well using a Mithras LB940 microplate reader (Berthold Technologies, Bad-Wildbad, Germany). Ca^2+ evoked luminescence was recorded for 40 s, followed by cell lysis (injection of 0.3% Triton-X 100 in BSA medium), and light emission recorded for a further 10 s. BSA medium was used for blank measurements (6 replicates per plate), and mock transfections with empty vectors for negative controls. Data reduction and analysis was done using MikroWin v5.18 (Mikrotek Laborsysteme, GmBH, Overath, Germany) and SigmaPlot v.13 (Systat Software Inc., San José CA, United States). Receptor responses were normalized against total Ca^2+ luminescence.

[1] = tested on: red and black chromatophores in the dactyl of the last walking leg; assay: chromatophore dispersion bioassay in vivo, red and black chromatophores; set-up: species or system Carcinus maenas; settings: n = 6 crabs; for potency in chromatophore dispersion assay (in words): injected 0.05–5 pmol per crab
Experimental: (§4) The pigmentary effector activity of all PDHs was measured in vivo using small (15–20 mm carapace width) C. maenas, which were light adapted against a white background (300 lux for 1 h). Pigment dispersion of the red and black chromatophores in the dactyl of the last walking leg was observed microscopically and indices of dispersion scored ([Hogben and Slome, 1931]). Peptides were reconstituted in physiological saline ([Saver et al., 1999]) immediately prior to assay, to minimize Met oxidation (storage of reconstituted peptides in frozen saline for extended periods completely abolished biological activity) and injected (10 μl) using hand-drawn, calibrated microcapillaries at 50–0.05 pmol per crab, with saline controls. Chromatophore dispersion indices were scored at 20 min intervals for 1 h.
(§5) FIGURE 9 The effect of PDHs on pigment migration in epidermal chromatophores of the 5th walking leg dactylus of C. maenas. Left panel: erythrophores, right panel: melanophores. Peptides were injected at 0.05–5 pmol per crab for PDH-1, -2, 5–50 pmol per crab for PDH-3, e-PDH, in 10 μl volumes. Mean (n = 6 crabs) chromatophore indices (Hogben-Slome) are indicated. Asterisks indicate significant differences in chromatophore stage (p < 0.05, Wilcoxon sign-rank test) 40 min after injection of peptide, compared to 0 min.

[2] = tested on: black chromatophores (melanophores) in the dactyl of the last walking leg; assay: chromatophore dispersion bioassay in vivo, black chromatophores (melanophores); set-up: species or system Carcinus maenas; settings: injected 0.05–5 pmol per crab; n = 6 crabs; melanophores were invariably partially dispersed in all crabs
Experimental: as §4, §5

PDHR 43673 = biological target: T2, PDHR 43673 (Carcinus maenas, UniProt A0A7G7MT97); assay: heterologous aequorin-based receptor luminescence assay, PDHR 43673; assay type: cell-based; settings: Ca2+ luminescence; for activation of PDHR 43673 (in words): CHO-K1-Aeq-Gα16 cells
T2 sequence (A0A7G7MT97 1-455): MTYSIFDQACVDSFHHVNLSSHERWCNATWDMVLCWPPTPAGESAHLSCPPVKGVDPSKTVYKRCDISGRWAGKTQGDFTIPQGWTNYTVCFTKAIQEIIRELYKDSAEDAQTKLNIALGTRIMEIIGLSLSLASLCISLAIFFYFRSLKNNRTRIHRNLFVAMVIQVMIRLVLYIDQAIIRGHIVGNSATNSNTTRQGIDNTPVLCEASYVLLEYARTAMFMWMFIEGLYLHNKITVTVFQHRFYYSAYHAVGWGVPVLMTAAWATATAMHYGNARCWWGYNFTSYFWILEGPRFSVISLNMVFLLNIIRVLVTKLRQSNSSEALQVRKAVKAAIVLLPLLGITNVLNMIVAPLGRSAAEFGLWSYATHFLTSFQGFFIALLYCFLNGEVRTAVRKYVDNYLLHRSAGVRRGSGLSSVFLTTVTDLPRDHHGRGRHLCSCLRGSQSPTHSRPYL
Experimental: as §1, §2, §3

[3] = tested on: red chromatophores (erythrophores) in the dactyl of the last walking leg; assay: chromatophore dispersion bioassay in vivo, red chromatophores (erythrophores); set-up: species or system Carcinus maenas; settings: n = 6 crabs; for dose giving significant dispersion of red chromatophores (erythrophores): 40 min after injection, 10 μl, p < 0.05, Hogben-Slome index; for dispersion of red chromatophores (in words): significant responses to doses of around 0.5 pmol per crab 40 min after injection
Experimental: as §4, §5

anti-PDH antiserum R171 = assay: enzyme immunoassay (EIA), cross-reactivity with PDH antiserum R171; assay type: binding; settings: for dose required to give an absorbance of 1.0 in the EIA: PDH antiserum R171 raised to PDH-1, 1:2000, absorbance at 405 nm
Experimental: Fixed nervous systems were processed for whole mount IHC as previously described ([Webster et al., 2013]). In some, whole eyestalks, including cuticle were taken from postmolt crabs, and routinely fixed (Bouin’s) and processed for paraffin wax embedding; thick serial sections (25–30 μm) were then prepared and processed for IHC. Primary antiserum concentrations [anti-PDH code R171, raised to a thyroglobulin conjugate of PDH-1 as described ([Dircksen et al., 1987]) and characterized ([Wilcockson et al., 2011])] was 1:2000. Secondary antiserum dilution (Alexa Fluor 488 goat anti-rabbit, Invitrogen, Thermo Fisher Scientific) was 1:750. Preparations were mounted on cavity slides using Vectashield (VectorLabs, United Kingdom), cover slipped, sealed with nail varnish, and images collected and Z-stacked at 5 μm intervals on a Zeiss 710 confocal microscope equipped with Zen Black edition software (Carl Zeiss, Jena, Germany).
To identify the neurohormonal PDH inventory, 50 sinus glands (SG) were extracted in 2 M acetic acid and separated by HPLC. Conditions: 4.6 mm × 300 mm Jupiter C18 300 Å column (Phenomenex, Macclesfield, United Kingdom) 40–80% solvent B over 30 min, 1 ml/min, detection at 210 nm, solvent A, 0.11% trifluoroacetic acid (TFA); solvent B 60% acetonitrile, 0.1% TFA. Fractions (1 ml) were dried by vacuum centrifugation and reconstituted in 0.1 M bicarbonate buffer, pH 9.3 immediately prior to immunoassay. Standard PDHs (800 pmol) were subsequently chromatographed to establish SG fractions for further MS analysis. PDH immunoreactive fractions were identified by enzyme immunoassay (EIA). Reconstituted fractions (100 μl) were coated onto high protein binding microplates (Costar 3590, Corning, VWR International, United Kingdom), overnight at 4 °C, followed by washing (3 times with 0.1 M bicarbonate buffer), blocking (0.1% BSA, 1 h RT) and incubation in 100 μl/well 1:2000 anti-PDH in containing 0.1% Tween 20 (PBST), overnight 4 °C. After washing (5 times with PBST), plates were incubated in 1:5000 goat anti-rabbit peroxidase labeled IgG (Vector laboratories, United Kingdom), for 6 h, RT. After washing (5 times with PBST), peroxidase activity was visualized (0.04% ABTS, 0.01% H2O2 (30%), 0.1 M phosphate/citrate buffer, pH 4.0). PDH-1 2500-2.5 fmol per well was used to generate standard curves for quantification. Absorbance at 405 nm was measured on a microplate reader (Mithras LB 940) with data analysis (MikroWin v5.18).

Substance	activation of PDHR 41189 (in words) (PDHR 41189)	potency in chromatophore dispersion assay (in words) [1]	dispersion of black chromatophores (melanophores) (in words) [2]	activation of PDHR 43673 (in words) (PDHR 43673)	dose giving significant dispersion of red chromatophores (erythrophores) [3]	dispersion of red chromatophores (in words) [3]	specificity of antiserum (in words) (anti-PDH antiserum R171; PDH antiserum R171)	dose required to give an absorbance of 1.0 in the EIA (anti-PDH antiserum R171)	dispersion of red chromatophores at the lowest dose (in words) ([3]; lowest dose, 50 fmol per crab)	chromatophore-dispersing activity (in words) ([1]; 5–50 pmol per crab, highest dose 50 pmol per crab)	EC50 (PDHR 41189; approximate EC50, CHO-K1-Aeq-Gα16 cells transiently expressing PDHR 41189, means of N = 4, normalized against maximum luminescence responses for PDH-1) [µM]	EC50 (PDHR 43673; approximate EC50, CHO-K1-Aeq-Gα16 cells transiently expressing PDHR 43673, means of N = 4, normalized against maximum luminescence responses for PDH-1) [µM]
NSELINSILGLPKVMNDA-NH2 [PDH-1]	high nanomolar concentrations of PDH-1, -2 were needed to result in a luminescent signal	exhibit biological activity in the chromatophore dispersion assay	also dispersed black chromatophores (melanophores), but to a lesser extent	activated by PDH-1 and PDH-2 at low nanomolar doses; also recorded: much more sensitive and larger luminescence responses; also recorded: activated the 43673 receptor in the low nanomolar range; also recorded: pronounced selectivity for PDH-1, -2	around 0.5 pmol per crab	effective in dispersing red chromatophores (erythrophores)	rather marked specificity to PDH-1; also recorded: marked selectivity for this peptide	150 fmol				
NSELINSLLGLSRLMNEA-NH2 [PDH-2]	high nanomolar concentrations of PDH-1, -2 were needed to result in a luminescent signal	exhibit biological activity in the chromatophore dispersion assay; also recorded: very potent in the chromatophore dispersion assay	also dispersed black chromatophores (melanophores), but to a lesser extent	activated by PDH-1 and PDH-2 at low nanomolar doses; also recorded: much more sensitive and larger luminescence responses; also recorded: activated the 43673 receptor in the low nanomolar range; also recorded: pronounced selectivity for PDH-1, -2	around 0.5 pmol per crab	effective in dispersing red chromatophores (erythrophores)		> 10,000 fmol	some pigment dispersion was observed at the lowest dose (50 fmol per crab) although this was transient and statistically not significant			
NSELINTLLGSQDLGNMRNA-NH2 [e-PDH]	activated by PDH-3 and an extended 20 residue e-PDH; also recorded: activated by PDH-3 and e-PDH at low nanomolar concentrations; also recorded: low nanomolar concentrations of PDH-3 and e-PDH activated this receptor; also recorded: preferentially activated by PDH-3 and e-PDH			micromolar concentrations of PDH-3 and e-PDH were necessary to activate this receptor; also recorded: even micromolar concentrations of PDH-3 and e-PDH were needed to produce rather weak luminescence responses				8000 fmol		entirely without chromatophore-dispersing activity, even at the highest dose used		
PDH-3: synthetic C. maenas pigment dispersing hormone 3, 18 residues, C-terminal Ala-amide; MN602309											0.025	10
diuretic hormone-31 [DH-31, reference compound]	Neither receptor was activated by DH-31			Neither receptor was activated by DH-31								

From PMC7658428, “Pigment Dispersing Factors and Their Cognate Receptors in a Crustacean Model, With New Insights Into Distinct Neurons and Their Functions” (Frontiers in Neuroscience, 2020)
